Reference: patent US12606552B2, “Bifunctional compound, preparation method therefor, and use thereof” (SUZHOU KINTOR PHARMACEUTICALS, INC., priority 2020, dated 2026)

Biological target: T1, AR (Homo sapiens, UniProt P10275, T878A)
T1 sequence (P10275 1-920 T878A): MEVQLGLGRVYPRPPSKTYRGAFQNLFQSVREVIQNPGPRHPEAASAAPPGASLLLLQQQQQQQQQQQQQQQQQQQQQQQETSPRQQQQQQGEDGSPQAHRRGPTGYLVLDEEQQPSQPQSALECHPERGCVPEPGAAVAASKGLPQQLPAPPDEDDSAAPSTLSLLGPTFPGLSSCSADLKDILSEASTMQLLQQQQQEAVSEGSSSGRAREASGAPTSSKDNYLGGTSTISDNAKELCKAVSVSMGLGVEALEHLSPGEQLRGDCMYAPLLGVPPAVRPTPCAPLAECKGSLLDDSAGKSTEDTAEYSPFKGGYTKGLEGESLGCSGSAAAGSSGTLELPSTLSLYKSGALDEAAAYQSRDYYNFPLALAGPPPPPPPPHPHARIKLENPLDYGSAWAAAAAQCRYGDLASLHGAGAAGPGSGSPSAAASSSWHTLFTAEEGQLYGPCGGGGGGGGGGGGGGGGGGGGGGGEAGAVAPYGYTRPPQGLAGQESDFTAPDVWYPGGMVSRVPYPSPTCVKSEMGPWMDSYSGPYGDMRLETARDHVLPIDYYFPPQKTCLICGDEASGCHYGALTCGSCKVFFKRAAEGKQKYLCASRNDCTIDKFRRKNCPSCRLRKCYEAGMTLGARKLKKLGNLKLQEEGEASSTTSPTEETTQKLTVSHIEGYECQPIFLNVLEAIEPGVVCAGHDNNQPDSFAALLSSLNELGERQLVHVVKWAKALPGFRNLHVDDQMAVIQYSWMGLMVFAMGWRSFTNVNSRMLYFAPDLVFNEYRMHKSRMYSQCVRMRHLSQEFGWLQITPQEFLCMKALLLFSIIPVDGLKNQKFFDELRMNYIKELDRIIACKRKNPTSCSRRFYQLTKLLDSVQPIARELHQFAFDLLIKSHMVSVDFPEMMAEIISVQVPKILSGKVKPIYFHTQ
Test: Effects of compounds on AR expression in LNCaP cells (ELISA, DC50)
Type: cell-based
Set-up: Measurement of the Effects of Drugs on the Expression of AR in Cells by ELISA Method; endogenous in cells; host or cells: LNCaP
Conditions: 24 hours of drug treatment, AR by ELISA
Procedure: Activity Assay Example 1: Effects of Compounds on AR Expression in LNCaP Cells
1. Cell Line and Cell Culture
Human prostate cancer cells LNCaP (Shanghai Chinese Academy of Sciences Cell Bank). LNCaP was cultured in 1640 medium containing 10% fetal bovine serum. The cells grow in clusters, with weak adhesion to the bottom of the culture flask, slow proliferation, with a multiplication time of 72 h. The cells are closely adhered to each other and need to be digested with 0.05% trypsin containing 0.025% EDTA. The cells were passaged every 3 days. The cells were cultured at 37° C. and 5% CO2 in a humidified incubator
2. Cell plating: The supernatant was discarded, and the Lncap cells in the logarithmic growth phase were taken, washed with PBS once, and added with appropriate 0.05% trypsin digestion solution to be fully digested into single cell suspension, and centrifuged, resuspended and counted to make the number of cells about 15,000 per well, then inoculated in a 96-well plate, placed at 37° C., 5% CO2 and cultured overnight for 24 h.
3. Preparation and Addition of Compound Solutions
About 2 mg of each compound was weighed and dissolved in DMSO to make the stock solution with a concentration of 10 mmol/L. Dilution process (final concentration dilution: 2, 0.667, 0.222, 0.074, 0.0245, 0.008, 0.003, 0.001, 0.0003, 0.0001 μmol/L): 10 centrifuge tubes with a volume of 1.5 mL were taken and numbered 1, 2, 3, 4, 5, 6, 7, 8, 9, and 10, 80 μL DMSO was added to tube No. 1, and 60 μL DMSO was added to tubes No. 2 to No. 10, 20 μL of the stock solution was pipetted to tube No. 1 and mixed well; 30 μL was pipetted from tube No. 1 into tube No. 2 and mixed well. 30 μL was pipetted from tube No. 2 into tube No. 3 and mixed well, and so forth, to obtain samples No. 4-10, and to obtain working solutions of compounds of different concentrations respectively. 2 μL was pipetted from the above-mentioned tubes No. 1-10 into each corresponding sterile deep-well plates, added with 198 μL of culture medium, and mixed well. 11 ul was added to each well of the 96-well cell plate cultured overnight to obtain the corresponding desired concentrations (2, 0.667, 0.222, 0.074, 0.0245, 0.008, 0.003, 0.001, 0.0003, 0.0001 μmol/L).
4. Measurement of the Effects of Drugs on the Expression of AR in Cells by ELISA Method
After 24 hours of drug treatment, the supernatant was removed, and 200 μL of PBS was added to wash cells, and then the supernatant was removed, and 100 μL of cell lysate was added to lyse cells on ice for 20 min, then the cell lysate was centrifuged at 4000 rpm for 20 min at 4° C. and the supernatant was taken for later use. The measurement steps of the supernatant were according to the ELISA kit instructions:
4.1 The slats required for the test were taken out from the sealed bag that has been equilibrated to room temperature. Please put the unused slats and desiccant back into the aluminum foil bag and compress the self-sealing strip, seal the bag, and store at 4° C.
4.2 Standards and sample diluents were added to blank wells, and different concentrations of standards (10 ul/well) and sample diluents (90 ul/well) were added to the remaining corresponding wells, and the reaction wells were sealed with sealing tape, and refrigerated at 4° C. overnight.
4.3 Primary antibody was diluted with dilution buffer to the corresponding concentration and added to each well in 100 ul/well. The reaction wells were sealed with sealing tape and incubated at 37° C. for 60 min.
4.4 Secondary antibody was diluted with dilution buffer to the corresponding concentration and added to each well in 100 ul/well. The reaction wells were sealed with sealing tape and incubated at 37° C. for 30 min.
4.5 The reaction wells were added with 100 ul/well of substrate (TMB) and incubated at room temperature for 30 min.
4.6 The reaction wells were added with 100 ul/well of stop solution, mixed well and then the OD450 value was measured with a microplate reader. […]

SMILES | DC50
CC1(C)C(=O)N(c2ccc(C#N)c(C(F)(F)F)c2F)C(=S)N1c1cnc(-c2ccc(OC3CCN(C(=O)COc4ccc5c(c4)C(=O)N(C4CCC(=O)NC4=O)C5=O)CC3)cc2C(F)(F)F)c(F)c1 (centres unmarked) [Compound A180] | 840 nM
Cc1cc(C(C(=O)N2C[C@H](O)C[C@H]2C(=O)N[C@@H](CC(=O)N2CCC(C#Cc3ccc(N4C(=S)N(c5ccc(C#N)c(C(F)(F)F)c5F)C(=O)C4(C)C)cc3)CC2)c2ccc(-c3scnc3C)cc2)C(C)C)on1 (some centres unmarked) [Compound A176] | 62.1 nM
Cc1ncsc1-c1ccc(CNC(=O)[C@@H]2C[C@@H](O)CN2C(=O)[C@@H](OC(=O)COCCCCOc2ccc(-c3ncc(N4C(=S)N(c5ccc(C#N)c(C(F)(F)F)c5F)C(=O)C4(C)C)cc3F)cc2F)C(C)(C)C)cc1 [Compound A107] | 107 nM
Cc1cc(C(C(=O)N2C[C@H](O)C[C@H]2C(=O)N[C@@H](CC(=O)NCCCCCCOc2ccc(-c3ncc(N4C(=S)N(c5ccc(C#N)c(C(F)(F)F)c5F)C(=O)C4(C)C)cc3F)cc2F)c2ccc(-c3scnc3C)cc2)C(C)C)on1 (some centres unmarked) [Compound A177] | 253 nM
CNC(=O)c1ccc(-c2c[nH]c([C@@H]3C[C@@H](O)CN3C(=O)[C@@H](NC(=O)COCCCCOc3ccc(-c4ccc(N5C(=S)N(c6ccc(C#N)c(C(F)(F)F)c6F)C(=O)C5(C)C)cn4)cc3)C(C)(C)C)n2)cc1 [Compound A234] | 26.1 nM
Cc1ncsc1-c1ccc(CNC(=O)[C@@H]2C[C@@H](O)CN2C(=O)[C@@H](NC(=O)COCC(F)(F)CCOc2ccc(-c3ncc(N4C(=S)N(c5ccc(C#N)c(C(F)(F)F)c5F)C(=O)C4(C)C)cc3F)cc2F)C(C)(C)C)cc1 [Compound A162] | 186 nM
CC(=O)O[C@@H]1C[C@@H](C(=O)NCc2ccc(-c3scnc3C)cc2)N(C(=O)[C@@H](NC(=O)COCCCCOc2ccc(-c3ncc(N4C(=S)N(c5ccc(C#N)c(C(F)(F)F)c5F)C(=O)C4(C)C)cc3F)c(C(F)(F)F)c2)C(C)(C)C)C1 [Compound A146] | 259 nM
CC1(C)C(=O)N(c2ccc(C#N)c(C(F)(F)F)c2F)C(=S)N1c1ccc(-c2ccc(C(=O)NCCNC(=O)COc3cccc4c3C(=O)N(C3CCC(=O)NC3=O)C4=O)cc2)nc1 (centres unmarked) [Compound A34] | 835 nM
Cc1ncsc1-c1ccc(CNC(=O)[C@@H]2C[C@@H](O)CN2C(=O)[C@@H](NC(=O)CCCN2CC(Oc3ccc(-c4ccc(N5C(=S)N(c6ccc(C#N)c(C(F)(F)F)c6F)C(=O)C5(C)C)cn4)cc3)C2)C(C)(C)C)cc1 [Compound A64] | 233 nM
Cc1ncsc1-c1ccc(CNC(=O)[C@@H]2C[C@@H](O)CN2C(=O)[C@@H](NC(=O)COCC(F)(F)CCOc2ccc(-c3ncc(N4C(=S)N(c5ccc(C#N)c(C(F)(F)F)c5F)C(=O)C4(C)C)cc3F)c(C(F)(F)F)c2)C(C)(C)C)cc1 [Compound A168] | 159 nM
Cc1ncsc1-c1ccc(CNC(=O)[C@@H]2C[C@@H](O)CN2C(=O)[C@@H](NC(=O)COCC(F)CCOc2ccc(-c3ncc(N4C(=S)N(c5ccc(C#N)c(C(F)(F)F)c5F)C(=O)C4(C)C)cc3F)c(C(F)(F)F)c2)C(C)(C)C)cc1 (some centres unmarked) [Compound A166] | 144 nM
Cc1ncsc1-c1ccc(CNC(=O)[C@@H]2C[C@@H](O)CN2C(=O)[C@@H](NC(=O)CCCCCC#Cc2ncc(N3C(=S)N(c4ccc(C#N)c(C(F)(F)F)c4F)C(=O)C3(C)C)cc2F)C(C)(C)C)cc1 [Compound A125] | > 2000 nM
COc1c(C#N)ccc(N2C(=O)C(C)(C)N(c3cnc(-c4ccc(OCCCCOCC(=O)N[C@H](C(=O)N5C[C@H](O)C[C@H]5C(=O)NCc5ccc(-c6scnc6C)cc5)C(C)(C)C)cc4C(F)(F)F)c(F)c3)C2=S)c1F [Compound A196] | 39 nM
CC1(C)C(=O)N(c2ccc(C#N)c(C(F)(F)F)c2F)C(=S)N1c1cnc(-c2cc(F)c(OC3CCN(C(=O)COc4ccc5c(c4)C(=O)N(C4CCC(=O)NC4=O)C5=O)CC3)c(F)c2)c(F)c1 (centres unmarked) [Compound A189] | 329 nM
Cc1ncsc1-c1ccc(CNC(=O)[C@@H]2C[C@@H](O)CN2C(=O)[C@@H](NC(=O)CCCn2cc(COc3ccc(-c4ncc(N5C(=S)N(c6ccc(C#N)c(C(F)(F)F)c6F)C(=O)C5(C)C)cc4F)cc3F)nn2)C(C)(C)C)cc1 [Compound A96] | 54.9 nM
Cc1ncsc1-c1ccc(CNC(=O)[C@@H]2C[C@@H](O)CN2C(=O)[C@@H](NC(=O)COCCOCCOc2ncc(N3C(=S)N(c4ccc(C#N)c(C(F)(F)F)c4F)C(=O)C3(C)C)cc2F)C(C)(C)C)cc1 [Compound A265] | 381 nM
CC1(C)C(=O)N(c2ccc(C#N)c(C(F)(F)F)c2F)C(=S)N1c1ccc(-c2ccc(OCCNC(=O)COc3cccc4c3C(=O)N(C3CCC(=O)NC3=O)C4=O)cc2)nc1 (centres unmarked) [Compound A23] | 721 nM
CC1(C)C(=O)N(c2ccc(C#N)c(C(F)(F)F)c2F)C(=S)N1c1ccc(C#CC2CCN(CCNC(=O)COc3cccc4c3C(=O)N(C3CCC(=O)NC3=O)C4=O)CC2)cc1 (centres unmarked) [Compound A27] | 34.8 nM
Cc1ncsc1-c1ccc(CNC(=O)[C@@H]2C[C@@H](O)CN2C(=O)[C@@H](NC(=O)COCC(F)C(F)COc2ccc(-c3ncc(N4C(=S)N(c5ccc(C#N)c(C(F)(F)F)c5F)C(=O)C4(C)C)cc3F)c(C(F)(F)F)c2)C(C)(C)C)cc1 (some centres unmarked) [Compound A154] | 37.6 nM
Cc1ncsc1-c1ccc(CNC(=O)[C@@H]2C[C@@H](O)CN2C(=O)[C@@H](NC(=O)c2ccc(C(F)(F)C(=O)Nc3ccc(-c4ccc(N5C(=S)N(c6ccc(C#N)c(C(F)(F)F)c6F)C(=O)C5(C)C)cn4)cc3)cc2)C(C)(C)C)cc1 [Compound A241] | 807 nM
Cc1ncsc1-c1ccc(CNC(=O)[C@@H]2C[C@@H](O)CN2C(=O)[C@@H](NC(=O)COCCCOCCCCOc2ccc(N3C(=S)N(c4ccc(C#N)c(C(F)(F)F)c4F)C(=O)C3(C)C)cn2)C(C)(C)C)cc1 [Compound A248] | 48.8 nM
CC(C)(C)[C@H](NC(=O)COCCCCCOc1ccc(-c2ncc(N3C(=S)N(c4ccc(C#N)c(C(F)(F)F)c4F)C(=O)C3(C)C)cc2F)cc1F)C(=O)N1C[C@H](O)C[C@H]1C(=O)NCc1ccccc1 [Compound A118] | > 2000 nM
CC1(C)C(=O)N(c2ccc(C#N)c(C(F)(F)F)c2F)C(=S)N1c1cnc(-c2cc(F)c(OC3CCN(C(=O)COc4cccc5c4C(=O)N(C4CCC(=O)NC4=O)C5=O)CC3)c(F)c2)c(F)c1 (centres unmarked) [Compound A191] | 162 nM
